One test deals with Staphylococcus aureus. The test is described as follows: Antibacterial activity against Staphylococcus aureus. In kind it is functional.
The nature of test [1]: Inhibition of tryptophanyl tRNA synthetase isolated from Staphylococcus aureus.

The structures appear in SMILES notation. Converted amounts (≈) assume the structure as drawn. A value given as a limit tells only on which side of the number the result lay.

The term MIC denotes the smallest concentration in the dilution series that meets the test's criterion for growth inhibition. Turning to `CNC1=NC(=O)[C@H]([C@H](CC(=O)OC(C)(C)C)c2c[nH]c3ccccc23)O1`, the MIC with Staphylococcus aureus is over 512 µg/mL. In addition, the I50 in test [1] is over 100000 ng/mL.
In the case of `CNC1=NC(=O)[C@H](C(C)(C)c2c[nH]c3ccccc23)O1`, the MIC in the test on Staphylococcus aureus was determined as 32 µg/mL (≈ 118 µM). Further, the I50 in test [1] amounted to 580 ng/mL.
The matching figures for `CNC1=NC(=O)[C@H]([C@H](CN)c2c[nH]c3ccccc23)O1`: over 512 µg/mL and over 100000 ng/mL.
Turning to `CNC1=NC(=O)[C@H]([C@@H](O)c2c[nH]c3ccccc23)O1`, in the test on Staphylococcus aureus, the MIC was over 64 µg/mL. Further, in test [1], the I50 was found to be 44000 ng/mL.
`CNC1=NC(=O)[C@H]([C@@H](C)c2c[nH]c3ccccc23)O1` yielded an MIC with Staphylococcus aureus of 8 µg/mL (≈ 31.1 µM). Moreover, the I50 in test [1] is 500 ng/mL.
For the molecule `CNC1=NC(=O)[C@H]([C@@H](CC(=O)OC(C)(C)C)c2c[nH]c3ccccc23)O1`, in the test with Staphylococcus aureus, the minimal inhibitory concentration (MIC) is over 512 µg/mL. This molecule also registered an I50 in test [1] of over 100000 ng/mL.
`CC[C@@H](c1c[nH]c2ccccc12)[C@@H]1OC(NC)=NC1=O` yielded an MIC against Staphylococcus aureus of over 512 µg/mL. Moreover, in test [1], the I50 was 22000 ng/mL.
In the test on Staphylococcus aureus, `CNC1=NC(=O)[C@H]([C@H](C[N+](=O)[O-])c2c[nH]c3ccccc23)O1` returned an MIC of 64 µg/mL (≈ 212 µM). Besides, the I50 in test [1] turned out to be 2300 ng/mL.
On to `CC[C@H](c1c[nH]c2ccccc12)[C@@H]1OC(NC)=NC1=O`, for which, in the test with Staphylococcus aureus, the MIC was found to be 64 µg/mL (≈ 236 µM). The I50 in test [1] stood at 250 ng/mL.
The matching figures for `CNC1=NC(=O)[C@](C)([C@H](C)c2c[nH]c3ccccc23)O1`: 64 µg/mL (≈ 236 µM) and 1200 ng/mL.
As to `CNC1=NC(=O)[C@H]([C@@H](CC(=O)O)c2c[nH]c3ccccc23)O1`, the MIC against Staphylococcus aureus was over 512 µg/mL. Moreover, the I50 in test [1] was over 100000 ng/mL.
Turning to `CNC1=NC(=O)[C@H]([C@H](CC(=O)O)c2c[nH]c3ccccc23)O1`, the MIC against Staphylococcus aureus is over 512 µg/mL. The I50 in test [1] is over 100000 ng/mL.
The corresponding values for `CNC1=NC(=O)[C@H]([C@](C)(O)c2c[nH]c3ccccc23)O1` are over 64 µg/mL and over 100000 ng/mL.
`CNC1=NC(=O)[C@H]([C@@](C)(O)c2c[nH]c3ccccc23)O1` registered an MIC against Staphylococcus aureus of 0.25 µg/mL (≈ 0.915 µM). The same molecule registered an I50 in test [1] of 46 ng/mL.
For `CNC1=NC(=O)[C@H]([C@H](/C=N\O)c2c[nH]c3ccccc23)O1`, the MIC in the test on Staphylococcus aureus was over 512 µg/mL. Further, the I50 in test [1] is over 100000 ng/mL.
In the test with Staphylococcus aureus, `CNC1=NC(=O)[C@](C)([C@@H](C)c2c[nH]c3ccccc23)O1` came in with an MIC of over 512 µg/mL. Moreover, in test [1], the I50 was over 100000 ng/mL.
The matching figures for `CNC1=NC(=O)[C@H]([C@@H](C[N+](=O)[O-])c2c[nH]c3ccccc23)O1`: over 64 µg/mL and over 100000 ng/mL.
The matching figures for `CNC1=NC(=O)[C@H](Cc2c[nH]c3ccccc23)O1`: 64 µg/mL (≈ 263 µM) and 1550 ng/mL.
For `CNC1=NC(=O)[C@H]([C@H](O)c2c[nH]c3ccccc23)O1`, in the test on Staphylococcus aureus, the MIC is over 64 µg/mL. The I50 in test [1] was determined as 4000 ng/mL.
For the molecule `CNC1=NC(=O)[C@H]([C@H](C)c2c[nH]c3ccccc23)O1` [INDOMYCIN], the minimum inhibitory concentration (MIC) with Staphylococcus aureus was 0.125 µg/mL (≈ 0.486 µM). For the same molecule, the I50 in test [1] was 16 ng/mL.
